The values that follow come from patent US12635715B2, “Isofucosterol and combinations of isofucosterol and a multiplicity of sterols as a nutrient for animals” (APIX BIOSCIENCES, priority 2022, dated 2026).

Structures are written as SMILES.

This assay concerns honeybee colonies (Apidea nucs). Nature of the assay: Brood production in Apidea nucs fed isofucosterol diets (Example 3). The following applies: as the concentration of isofucosterol in the diet increased; N>3 colonies/treatment. The format is in vivo, honeybees. As for the experimental part: Honeybees: Fully functional insulated styrofoam Apidea nucs comprised 5 mini frames populated with adult workers and 1 mated laying queen bee were populated with 300-400 ml of young adult workers (˜N<1.000 bees of mixed ages).
Each treatment was tested with 3-6 colonies; each colony was fed with a 60-100 g patty (solid diet) on the top feeder fitted with a mesh floor. Diet was fed on the first day and again on day 6; the quantity consumed was measured on day 6 and day 15. If no larvae or eggs/queen are observed by day 6 then the experiment is terminated. The number of capped brood cells was counted on day 15. The number of bee seams was estimated during each inspection. Sugar syrup (34%) and water was provided in feeders inside the tent to prevent carbohydrate starvation and to stimulate foraging activity.
In Example 3, bees were fed with a diet containing 10-18% protein, 6% fat, 1% vitamins/minerals and >75% carbohydrates.
As the concentration of isofucosterol increased, the amount of brood produced in each colony increased (N>3 colonies/treatment). The pupae, and the number of new adults was counted over the entire 10-week period.

Regarding `C/C=C(/CC[C@@H](C)[C@H]1CC[C@H]2[C@@H]3CC=C4C[C@@H](O)CC[C@]4(C)[C@H]3CC[C@]12C)C(C)C` [isofucosterol, Isofucosterol], the “amount of brood produced in each colony” value is “increased”.
